Where “and” joins values, the source holds several entries; their conditions need not be identical. Equal values may be shown once. Entries after “also recorded” stand apart in the source; their conditions may differ. Read-outs that look alike come from different tables or passages of the source.
What was measured:
MT2 [1] = biological target: T1, MT2 (Homo sapiens, UniProt P49286); assay: [3H]melatonin competition radioligand binding, MT2 membranes; design: expressed in transfected cells; host or cells: HEK293T (ATCC CRL-11268), transient transfection; conditions: read-out: MT2 pKi ± SEM (converted)
T1 sequence (P49286 1-362): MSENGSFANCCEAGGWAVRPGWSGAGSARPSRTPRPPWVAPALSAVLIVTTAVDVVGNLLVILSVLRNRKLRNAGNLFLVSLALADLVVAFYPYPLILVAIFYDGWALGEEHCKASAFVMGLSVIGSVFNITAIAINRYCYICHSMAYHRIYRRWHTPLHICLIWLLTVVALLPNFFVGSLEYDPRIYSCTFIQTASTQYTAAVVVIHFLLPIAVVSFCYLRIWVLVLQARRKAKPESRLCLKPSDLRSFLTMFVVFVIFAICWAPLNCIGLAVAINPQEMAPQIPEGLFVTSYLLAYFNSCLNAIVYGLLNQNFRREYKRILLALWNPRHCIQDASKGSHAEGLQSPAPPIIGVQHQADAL
Procedure: (§1) The Radioligand binding assays were conducted by the NIMH Psychoactive Drug Screening Program (PDSP). The NIMH PDSP is directed by Bryan L. Roth, MD, PhD, at the University of North Carolina at Chapel Hill, North Carolina, and Program Officer Jamie Driscoll at NIMH, Bethesda, MD. Binding assay procedures and protocols are also available online at http://pdspdb.unc.edu/pdspWeb/?site=assays. […] Assay plates were sealed and incubated for 4 hr at 37°C in a humidified incubator until harvesting. Plates were harvested using vacuum filtration onto 0.3% polyethyleneimine pre-soaked 96-well Filtermat A (PerkinElmer) and washed three times with cold wash buffer (50 mM Tris, pH 7.4). Filters were dried and melted with a scintillation cocktail (Meltilex, PerkinElmer). Radioactivity was counted using a Wallac TriLux Microbeta counter (PerkinElmer). Results were analyzed using GraphPad Prism 7.0.

MT2 [2] = biological target: T1, MT2; assay: Tango β-arrestin recruitment assay, MT2; assay type: cell-based; design: expressed in transfected cells; transient transfection; conditions: result in words; compared to G-protein
Procedure: Tango arrestin recruitment assays were carried out according to the previously published procedure [Kroeze et al. (2015)]. In brief, HTLA cells were transiently transfected with receptor TANGO DNA constructs overnight in DMEM with 10% FBS. Transfected cells were then plated into poly-L-Lys coated 384-well plates using DMEM supplemented with 1% dialyzed FBS. After 6 hr incubation, drug dilutions, prepared in DMEM with 1% dFBS, were added for incubation overnight (16–20 hr). Medium and drug solutions were removed, Bright-Glo reagent (20 uL/well) was added for luminescence counting 20 min later. Results were analyzed in GraphPad Prism 7.0.

MT2 [3] = biological target: T1, MT2; assay: Bias factor, Gi-cAMP versus Tango (Black and Leff operational model), MT2; assay type: cell-based; design: expressed in transfected cells; host or cells: HEK293T (ATCC CRL-11268), transient transfection; conditions: G-protein over β-arrestin at MT2; reference melatonin; 10^ΔΔLog(τ/KA)
Procedure: Bias factors were estimated according to the published procedure [Kenakin et al. (2012)] with modifications. Briefly, normalized and pooled results were analyzed by fitting the Black and Leff operational model in Prism 7.0 to obtain Log(τ/KA) values for each pathway (Tango and Gi-cAMP). Within each signaling pathway, a difference of Log(τ/KA), ΔLog(τ/KA), between a test compound and selected reference (melatonin in this case) was calculated. For a testing compound, the difference of ΔLog(τ/KA), ΔΔLog(τ/KA), was then obtained between two pathways. The bias factor is 10^ΔΔLog(τ/KA).

MT2 [4] = biological target: T1, MT2; assay: GloSensor Gi/o-mediated cAMP production inhibition assay, MT2; assay type: cell-based; design: expressed in transfected cells; host or cells: HEK293T (ATCC CRL-11268), transient transfection
Procedure: (§2) Briefly, HEK293 T cells (as above) were transiently co-transfected with receptor (MT1 or MT2) and GloSensor cAMP (Promega) plasmids overnight, plated in Poly-L-Lysine coated 384-well white clear bottom plates in DMEM + 1% dialyzed FBS. Cells were used for assays at a minimum of 6 hr after plating. Culture medium was first removed and cells were stimulated with drugs in assay buffer (1x HBSS, 20 mM HEPES, 1 mg/ml BSA, 0.1 mg/ml ascorbic acid, pH 7.4) for 15 min at room temperature (this and all the following steps), followed by addition of a mixture of isoproterenol (final of 100 nM) and luciferin (final of 1 mM) for Gi/o-cAMP production inhibition assays and luciferin (final of 1 mM) for Gs-cAMP production assays. The plates were counted for luminescence after 25 min in a luminescence plate reader. Results were analyzed using GraphPad Prism 7.0.

MT1 [5] = biological target: T2, MT1 (Homo sapiens, UniProt P48039); assay: [3H]melatonin competition radioligand binding, MT1 membranes; conditions: read-out: MT1 pKi ± SEM (converted)
T2 construct: expressed in transfected cells; host or cells: HEK293T (ATCC CRL-11268), transient transfection
Procedure: as §1

[6] = test system: panel of 47 common drug targets (GPCRs, ion-channels and transporters); assay: Binding profiling at a panel of 47 common drug targets; conditions: final concentration of 10 μM
Procedure: as §1, with “http://pdspdb.unc.edu/pdspWeb/?site=assays. All the radioligand binding assays were performed using membranes prepared from transiently transfected HEK293T cells (purchased from ATCC, CRL-11268, authenticated by the supplier using morphology, growth characteristics, and STR profiling and certified mycoplasma-free) and in standard binding buffer (50 mM Tris, 10 mM MgCl2, 0.1 mM EDTA, 0.1% BSA, 0.01% ascorbic acid, pH 7.4) as recently reported ([Stauch et al., 2019]).” for “http://pdspdb.unc.edu/pdspWeb/?site=assays.”

MT1 [7] = biological target: T2, MT1; assay: GloSensor Gi/o-mediated cAMP production inhibition assay, MT1; assay type: cell-based; conditions: for EC50: Gi/o mediated
Procedure: as §2

[8] = ligand efficiency (based on EC50)

T2 sequence (P48039 whole entry): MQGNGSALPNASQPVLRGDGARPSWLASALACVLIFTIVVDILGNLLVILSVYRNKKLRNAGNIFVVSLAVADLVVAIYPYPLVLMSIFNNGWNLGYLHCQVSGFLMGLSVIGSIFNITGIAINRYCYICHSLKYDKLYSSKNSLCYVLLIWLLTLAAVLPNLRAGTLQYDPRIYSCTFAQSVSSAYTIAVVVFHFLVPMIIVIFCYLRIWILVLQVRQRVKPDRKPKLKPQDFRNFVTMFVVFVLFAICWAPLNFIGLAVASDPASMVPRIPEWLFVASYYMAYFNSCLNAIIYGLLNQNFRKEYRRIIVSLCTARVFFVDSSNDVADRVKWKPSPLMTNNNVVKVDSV

## COc1ccnc(N(C)CCNC(C)=O)n1 [Compound 21, N-{2-[(4-methoxypyrimidin-2-yl)(methyl)amino]ethyl}acetamide]
MT2 [1]
  Ki: 123 nM
MT2 [2]
  β-arrestin signaling / arrestin recruitment at MT2: dramatically reduced arrestin recruitment; also recorded: marked reduction in β-arrestin signaling compared to G-protein
MT2 [3]
  bias factor: 15.5
MT2 [4]; Antilog (log(Emax/EC50) MT2 - log (Emax/EC50) MT1), values below 1 = MT1 selectivity
  MT2/MT1 Selectivity: 30 fold and 30.6 fold
MT2 [4]; Gi/o mediated, SEM, N = 3, read-out: MT2 pEC50 ± SEM (converted)
  EC50: 0.363 nM
MT2 [4]; MT2, activation compared to melatonin, read-out: MT2 Emax ± SEM
  Emax: 86.1 ± 3.2%
MT2 [4]; [8]
  MT2 LE: 0.83 kcal/mol per non-hydrogen atom
MT1 [5]
  Ki: 490 nM
[6]
  binding at panel of 47 common drug targets: did not show any substantial binding
MT1 [7]; SEM, N = 3, read-out: MT1 pEC50 ± SEM (converted)
  EC50: 12.3 nM
MT1 [7]; read-out: MT1 EC50
  EC50: 12 nM
MT1 [7]; [8]
  MT1 LE: 0.69 kcal/mol per non-hydrogen atom
MT1 [7]; read-out: MT1 Emax ± SEM
  Emax: 93.8 ± 2.5%

Source: PMC7080406 (eLife, 2020)
